Laboratory results: US10221129B2, “Inhibitors of human immunodeficiency virus replication” (ViiV HEALTHCARE UK (NO.5) LIMITED, priority 2015, dated 2019)

Tests used:
[1] = Compound cytotoxicity, XTT-based colorimetric assay; format: cell-based; conditions: human, uninfected MT2 cells, day 4, XTT
How it was run: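 Run under the antiviral-assay protocol but without virus. Viability was read on day 4 and CC50 values were derived from the readout.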

[2] = tested on: recombinant NL4-3 virus (nef section replaced with Renilla luciferase gene) in MT-2 cells; test: HIV cell culture assay (antiviral activity, luciferase readout); format: cell-based
How it was run: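 Serial compound dilutions tested in MT-2 cells infected for 4-5 days with 293T-derived NL4-3 virus carrying Renilla luciferase in place of part of nef. Antiviral activity quantified as luciferase activity, read with a live-cell substrate.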

[3] = Renilla, NL43, MT-2 cells infected for 4-5 days with recombinant NL4-3 Renilla luciferase virus
[4] = MT-2 cells infected for 4-5 days with recombinant NL4-3 Renilla luciferase virus

| SMILES | CC50 at 4 days [1] | EC50 [2, 3] | EC50 [2, 4] | CC50 at 4 day [1] |
| --- | --- | --- | --- | --- |
| CN(C(=O)[C@H](Cc1cc(F)cc(F)c1)NC(=O)NS(=O)(=O)N(C)c1ccccc1F)c1ccc2scnc2c1 [CA-117] | > 100000 nM | 120 nM |  |  |
| CN(C(=O)[C@H](Cc1cc(F)cc(F)c1)NC(=O)NS(=O)(=O)N1CC(F)(F)C1)c1ccc2scnc2c1 [CA-130] | > 100000 nM | 450 nM |  |  |
| CN(C(=O)[C@H](Cc1cc(F)cc(F)c1)NC(=O)NS(=O)(=O)N1CCc2cccnc21)c1ccc(=O)n(C)c1 [BB-1] | > 100000 nM | 11000 nM |  |  |
| CN(C(=O)[C@H](Cc1cc(F)cc(F)c1)NC(=O)NS(=O)(=O)N(C)Cc1ccccc1)c1ccc2scnc2c1 [CA-139] | > 100000 nM | 220 nM |  |  |
| COc1ccc(N(C)C(=O)[C@H](Cc2ccccc2)NC(=O)NS(=O)(=O)NC(C)c2cccc(C)n2)cc1 (some centres unmarked) [JB-58] | > 100000 nM | 690 nM |  |  |
| CN1CCN(S(=O)(=O)NC(=O)N[C@@H](Cc2cc(F)cc(F)c2)C(=O)N(C)c2ccc3scnc3c2)CC1 [CA-122] | > 33300 nM | 280 nM |  |  |
| COc1ccc(N(C)C(=O)[C@H](Cc2ccccc2)NC(=O)NS(=O)(=O)Nc2ccc3[nH]cnc3c2)cc1 [JB-36] | > 100000 nM | 2260 nM |  |  |
| COc1ccc(N(C)C(=O)[C@H](Cc2ccccc2)NC(=O)NS(=O)(=O)Nc2ccc(C(C)=O)cc2)cc1 [CA-19] | > 100000 nM | 120 nM |  |  |
| COc1ccc(N(C)C(=O)[C@H](Cc2ccccc2)NC(=O)NS(=O)(=O)Nc2ccccc2Oc2ccccc2)cc1 [CA-33] | > 33300 nM | 2040 nM |  |  |
| COc1ccc(N(C)C(=O)[C@H](Cc2ccccc2)NC(=O)NS(=O)(=O)Nc2ccc(F)cc2)cc1 [JB-50] | > 100000 nM | 100 nM |  |  |
| COc1ccc(N(C)C(=O)[C@H](Cc2ccccc2)NC(=O)NS(=O)(=O)n2c(C)cc3ccc(OC)cc32)cc1 [CA-64] | 62400 nM | 440 nM |  |  |
| CCN(c1ccccc1)S(=O)(=O)NC(=O)N[C@@H](Cc1cc(F)cc(F)c1)C(=O)N(C)c1ccc2scnc2c1 [ZY-9] | > 100000 nM | 180 nM |  |  |
| CN(C(=O)[C@H](Cc1ccccc1)NC(=O)NS(=O)(=O)N(C)c1ccccc1Cl)c1ccc2ncccc2c1 [JB-11] | > 100000 nM | 40 nM |  |  |
| CN(C(=O)[C@H](Cc1cc(F)cc(F)c1)NC(=O)NS(=O)(=O)N1CCCC1c1ccccc1)c1ccc2scnc2c1 (single isomer, unassigned) [VN-3] | 52400 nM |  | 850 nM |  |
| COc1ccc(N(C)C(=O)[C@H](Cc2ccccc2)NC(=O)NS(=O)(=O)n2ccc3cnccc32)cc1 [JB-80] |  | 360 nM |  | > 100000 nM |
| CN(C(=O)[C@H](Cc1cc(F)cc(F)c1)NC(=O)NS(=O)(=O)NCCc1ccccc1)c1ccc2scnc2c1 [CA-158] | > 100000 nM | 340 nM |  |  |
| CN(C(=O)[C@H](Cc1cc(F)cc(F)c1)NC(=O)NS(=O)(=O)N1CCc2c(Cl)ccnc21)c1ccc2scnc2c1 [BB-8] | 82400 nM | 440 nM |  |  |
| CN(C(=O)[C@H](Cc1cc(F)cc(F)c1)NC(=O)NS(=O)(=O)N1CCc2cccnc21)c1cccnc1 [GW-18] | > 100000 nM | 180 nM |  |  |
| CCN(c1ccccc1)S(=O)(=O)NC(=O)N[C@@H](Cc1ccccc1)C(=O)N(C)c1ccc(OC)cc1 [CA-23] | > 100000 nM | 60 nM |  |  |
| COc1ccc(N(C)C(=O)[C@H](Cc2ccccc2)NC(=O)NS(=O)(=O)Nc2cc(F)ccc2F)cc1 [JB-48] | > 100000 nM | 170 nM |  |  |
| COc1ccccc1N(C)S(=O)(=O)NC(=O)N[C@@H](Cc1ccccc1)C(=O)N(C)c1ccc2ncccc2c1 [JB-13] | > 33300 nM | 260 nM |  |  |
| COCCNS(=O)(=O)NC(=O)N[C@@H](Cc1cc(F)cc(F)c1)C(=O)N(C)c1ccc2scnc2c1 [CA-153] | 9000 nM | 150 nM |  |  |
| CN(C(=O)[C@H](Cc1cc(F)cc(F)c1)NC(=O)NS(=O)(=O)NCc1ccccn1)c1ccc2scnc2c1 [CA-134] | > 100000 nM | 430 nM |  |  |
| COc1ccc(N(C)C(=O)[C@H](Cc2ccccc2)NC(=O)NS(=O)(=O)NCc2ccc3nc(C)[nH]c3c2)cc1 [JB-54] | > 100000 nM | 12000 nM |  |  |
| CC1Cc2cccnc2N1S(=O)(=O)NC(=O)N[C@@H](Cc1cc(F)cc(F)c1)C(=O)N(C)c1ccc2scnc2c1 (single isomer, unassigned) [VN-6] |  |  | 20 nM | > 1000 nM |

| SMILES | CC50 at 4 days [1] | EC50 [2, 3] | EC50 [2, 4] | CC50 at 4 day [1] |
| --- | --- | --- | --- | --- |
| Cc1cc(N(C)C(=O)[C@H](Cc2ccccc2)NC(=O)NS(=O)(=O)N2CCc3cccnc32)ccc1Cl [BB-6] | > 33300 nM | 340 nM |  |  |
| COc1ccc(N(C)C(=O)[C@H](Cc2cc(F)cc(F)c2)NC(=O)NS(=O)(=O)N2CCCCC2)cc1F [AW-4] | > 100000 nM | 480 nM |  |  |
| COc1ccc(N(C)C(=O)[C@H](Cc2ccccc2)NC(=O)NS(=O)(=O)Nc2ccc(OCc3ccccc3)cc2)cc1 [CA-32] | > 33300 nM | 980 nM |  |  |
| Cc1ccc(NS(=O)(=O)NC(=O)N[C@@H](Cc2cc(F)cc(F)c2)C(=O)N(C)c2ccc3scnc3c2)cc1 [ZY-10] | > 100000 nM | 50 nM |  |  |
| CN(C(=O)[C@H](Cc1cc(F)cc(F)c1)NC(=O)NS(=O)(=O)Nc1cccnc1)c1ccc2scnc2c1 [CA-123] | > 100000 nM | 160 nM |  |  |
| CN(C(=O)[C@H](Cc1cc(F)cc(F)c1)NC(=O)NS(=O)(=O)N1CCc2cccnc21)c1ccc(OC(F)F)nc1 [GW-13] | > 100000 nM | 60 nM |  |  |
| CN(C(=O)[C@H](Cc1ccccc1)NC(=O)NS(=O)(=O)N1CCc2cccnc21)c1ccc2scnc2c1 [ZY-2] | > 53000 nM | 50 nM |  |  |
| COc1ccc(N(C)C(=O)[C@H](Cc2ccccc2)NC(=O)NS(=O)(=O)Nc2ccc(F)c(F)c2)cc1 [JB-51] | > 100000 nM | 110 nM |  |  |
| CCOc1ccc(NS(=O)(=O)NC(=O)N[C@@H](Cc2ccccc2)C(=O)N(C)c2ccc(OC)cc2)cc1 [JB-81] | > 100000 nM | 260 nM |  |  |
| CCNS(=O)(=O)NC(=O)N[C@@H](Cc1cc(F)cc(F)c1)C(=O)N(C)c1ccc2scnc2c1 [CA-124] | > 100000 nM | 110 nM |  |  |
| CC(C)CCNS(=O)(=O)NC(=O)N[C@@H](Cc1cc(F)cc(F)c1)C(=O)N(C)c1ccc2scnc2c1 [CA-145] | > 100000 nM | 120 nM |  |  |
| COc1ccc(N(C)C(=O)[C@H](Cc2ccccc2)NC(=O)NS(=O)(=O)N2CCc3c(Cl)cccc32)cc1 [CA-1] | 21400 nM | 250 nM |  |  |
| CN(C(=O)[C@H](Cc1cc(F)cc(F)c1)NC(=O)NS(=O)(=O)N1CC(C)(O)C1)c1ccc2scnc2c1 [CA-129] | > 100000 nM | 140 nM |  |  |
| Cc1ncc(N(C)C(=O)[C@H](Cc2cc(F)cc(F)c2)NC(=O)NS(=O)(=O)N2CCc3cccnc32)cc1Cl [GW-15] | 5100 nM | 970 nM |  |  |
| COc1ccc(N(C)C(=O)[C@H](Cc2ccccc2)NC(=O)NS(=O)(=O)Nc2ccc(C(F)(F)F)cc2)cc1 [CA-28] | > 100000 nM | 50 nM |  |  |
| COc1ccc(N(C)C(=O)[C@H](Cc2ccccc2)NC(=O)NS(=O)(=O)N2Cc3ccncc3C2)cc1 [JB-44] | > 100000 nM | 1750 nM |  |  |
| CN(C(=O)[C@H](Cc1cc(F)cc(F)c1)NC(=O)NS(=O)(=O)N1CCC(c2ccccc2)C1)c1ccc2scnc2c1 (mixture of isomers) [CA-152] | > 100000 nM | 550 nM |  |  |
| COc1ccc(N(C)C(=O)[C@H](Cc2cc(F)cc(F)c2)NC(=O)NS(=O)(=O)N2CCC[C@H]2C(=O)N(C)C)cc1 [BB-21] | > 100000 nM | 750 nM |  |  |
| COc1ccc(N(C)C(=O)[C@H](Cc2ccccc2)NC(=O)NS(=O)(=O)n2nc(-c3ccccc3)c3ccccc32)cc1 [CA-63] | 73700 nM | 30200 nM |  |  |
| COc1ccc(N(C)C(=O)[C@H](Cc2ccccc2)NC(=O)NS(=O)(=O)n2ccc3ccncc32)cc1 [CA-61] | > 100000 nM | 400 nM |  |  |
| CC(C)N(C)S(=O)(=O)NC(=O)N[C@@H](Cc1cc(F)cc(F)c1)C(=O)N(C)c1ccc2scnc2c1 [CA-147] | > 100000 nM | 80 nM |  |  |
| COc1ccc(N(C)C(=O)[C@H](Cc2ccccc2)NC(=O)NS(=O)(=O)Nc2ccccc2C#N)cc1 [CA-6] | > 100000 nM | 380 nM |  |  |
| CN(C(=O)[C@H](Cc1cc(F)cc(F)c1)NC(=O)NS(=O)(=O)n1ccc2nccnc21)c1ccc2scnc2c1 [ZY-18] | > 100000 nM | 150 nM |  |  |
| CN(C)C(=O)[C@H]1CCCN1S(=O)(=O)NC(=O)N[C@@H](Cc1cc(F)cc(F)c1)C(=O)N(C)c1ccc2scnc2c1 [BB-26] | > 100000 nM | 310 nM |  |  |
